Measurements: patent US20080311126A1, “Antisense Oligonucleotides Directed to Ribonucleotide Reducatase R2 and Uses Thereof in Combination Therapies for the Treatment of Cancer” (Genesense Technologies, Inc, priority 2004, published 2008)
Oligonucleotides are written 5' to 3', each unit as a sugar letter and its base; * is a phosphorothioate linkage, no mark a phosphodiester; rarer units and linkages stand in square brackets, end groups in braces. Plain capitals give the bases only. d = 2'-deoxy (DNA)

What was measured:
Assay type in all cases: cell-based, human
Hela S3 cells [1] = experiment: Sensitization to chemotherapeutics by AS-II-2229B-20, relative colony forming efficiency; details: HeLa S3
Experimental: (§1) Colony forming efficiency was determined using standard protocols. Briefly, the cells were cultured for 24 hours at 37° C. in growth medium with 10% fetal bovine serum. The cells were washed in 5 ml phosphate buffered saline, pH 7.2, once prior to lipofectin +/−oligonucleotide treatment.
(§2) The test oligonucleotides were added to cell cultures in the presence of 2.5 μg of DOTMA/DOPE (Lipofectin; Life Technologies, Inc.) for four hours. The oligonucleotide was tested at 0.2 μM unless otherwise indicated. Controls were the cultures treated with lipofectin but without the oligonucleotide. After 4 hours the medium containing the oligonucleotide was removed and washed with 5 ml of growth medium. The cells were then cultured in growth medium containing 10% fetal bovine serum for seven to ten days. Surviving cells were visualized by methylene blue staining, and colonies were scored. In some experiments cell aliquots were removed from the culture and viability was determined using the trypan blue exclusion test. Results were analyzed as percent of surviving cells compared to control cells.
(§3) Treatment of human tumour cells with very low concentrations of short antisense sequences was tested to determine if these constructs could sensitize the tumour cells to inhibitory effects of other chemotherapeutic drugs.

Hela 1 mM cells = experiment: as above; details: HeLa 1 mM
Experimental: as §1, §2, §3

Hela S3 cells [2] = experiment: Relative colony forming efficiency, lipofectin +/- oligonucleotide 4 hours; details: Hela S3 cervix carcinoma cells; averages of 2-8 determinations
Summary of the method: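 HeLa S3 cells were exposed to phosphorothioate antisense oligonucleotide (0.2 μM unless stated) with lipofectin for 4 h, then grown 7–10 days in 10% FBS medium. Methylene blue-stained colonies were counted and expressed as percent survival relative to lipofectin-only controls.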

[3] = test system: T-47D breast ductal carcinoma; experiment: Relative colony forming efficiency (Example 17, Table 13); details: averages of 2-8 determinations
Summary of the method: (§4)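 Phosphorothioate antisense oligodeoxynucleotides, at 0.2 μM unless otherwise indicated, were applied with 2.5 μg DOTMA/DOPE (Lipofectin) for 4 h. Colonies stained with methylene blue and scored, with viability sometimes checked by trypan blue exclusion. Values given as % inhibition of colony formation relative to lipofectin-only controls.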

[4] = test system: PC-3 prostrate cell adenocarcinoma; experiment: as above; details: averages of 2-8 determinations
Summary of the method: as §4

[5] = test system: HCT116 colon cell carcinoma; experiment: as above; details: averages of 2-8 determinations
Summary of the method: as §4

[6] = test system: MDA PaCa-2 pancreatic cell carcinoma; experiment: as above; details: MIA PaCa-2 pancreatic cell carcinoma; averages of 2-8 determinations
Summary of the method: as §4

[7] = test system: MDA-MB-231 breast cell adenocarcinoma; experiment: as above; details: averages of 2-8 determinations
Summary of the method: as §4

[8] = test system: T24 bladder cell carcinoma; experiment: as above; details: averages of 2-8 determinations
Summary of the method: as §4

A549 lung cell carcinoma = experiment: as above; details: averages of 2-8 determinations
Summary of the method: as §4

[9] = test system: HepG2 hepatocellular carcinoma; experiment: as above; details: averages of 2-8 determinations
Summary of the method: as §4

[10] = test system: H596 lung adenosquamous carcinoma cells; experiment: as above; details: averages of 2-8 determinations
Summary of the method: as §4

[11] = drug 40 μM, with AS-II-2229B-20 0.02 μM
[12] = drug 40 μM, without AS-II-2229B-20
[13] = drug 60 μM, with AS-II-2229B-20 0.02 μM
[14] = drug 60 μM, without AS-II-2229B-20
[15] = drug 20 μM, with AS-II-2229B-20 0.02 μM
[16] = drug 20 μM, without AS-II-2229B-20

| Compound | Reduced relative colony forming efficiency, Hela S3 (% inhibition of colony forming ability) (Hela S3 cells [2]) [%] | Reduced relative colony forming efficiency, T-47D (% inhibition of colony forming ability) [3] [%] | Reduced relative colony forming efficiency, PC-3 (% inhibition of colony forming ability) [4] [%] | Reduced relative colony forming efficiency, HCT116 (% inhibition of colony forming ability) [5] [%] | Reduced relative colony forming efficiency, MIA PaCa-2 (% inhibition of colony forming ability) [6] [%] | Reduced relative colony forming efficiency, MDA-MB-231 (% inhibition of colony forming ability) [7] [%] | Reduced relative colony forming efficiency, T24 (% inhibition of colony forming ability) [8] [%] | Reduced relative colony forming efficiency, A549 (% inhibition of colony forming ability) (A549 lung cell carcinoma) [%] | Reduced relative colony forming efficiency, HepG2 (% inhibition of colony forming ability) [9] [%] | Reduced relative colony forming efficiency, 11596 (% inhibition of colony forming ability) [10] [%] | further results |
| --- | --- | --- | --- | --- | --- | --- | --- | --- | --- | --- | --- |
| CN(Cc1cnc2nc(N)nc(N)c2n1)c1ccc(C(=O)N[C@@H](CCC(=O)O)C(=O)O)cc1 [MTX, methotrexate] |  |  |  |  |  |  |  |  |  |  | Relative colony Forming Efficiency (Hela S3 cells [1]; [11]): 25 ± 5; Relative colony Forming Efficiency (Hela S3 cells [1]; [12]): 118 ± 32; Relative colony Forming Efficiency (Hela S3 cells [1]; [13]): 0; Relative colony Forming Efficiency (Hela S3 cells [1]; [14]): 116 ± 13; Relative colony Forming Efficiency (Hela 1 mM cells; [11]): 6.5 ± 5.5; Relative colony Forming Efficiency (Hela 1 mM cells; [12]): 28 ± 10; Relative colony Forming Efficiency (Hela 1 mM cells; [13]): 3.5 ± 0.5; Relative colony Forming Efficiency (Hela 1 mM cells; [14]): 12 ± 0.5 |
| O=C(O)C[C@H](NC(=O)CP(=O)(O)O)C(=O)O [PALA, N-(phosphonacetyl)-L-aspartate] |  |  |  |  |  |  |  |  |  |  | Relative colony Forming Efficiency (Hela S3 cells [1]; [15]): 90 ± 10; Relative colony Forming Efficiency (Hela S3 cells [1]; [16]): 350 ± 50; Relative colony Forming Efficiency (Hela 1 mM cells; [15]): 108 ± 7.5; Relative colony Forming Efficiency (Hela 1 mM cells; [16]): 377 ± 21; Relative colony Forming Efficiency (Hela 1 mM cells; drug 30 μM, with AS-II-2229B-20 0.02 μM): 101 ± 2.0; Relative colony Forming Efficiency (Hela 1 mM cells; drug 30 μM, without AS-II-2229B-20): 311 ± 9.5 |
| AS-II-1560.20 (antisense dG*dT*dA*dA*dG*dT*dC*dA*dC*dA*dG*dC*dC*dA*dG*dC*dC*dA*dG*dG) | 82.16 | 86.6 | 78.37 | 85.81 | 33.3 | 46.15 | 32.49 | 84.19 | 73.63 | 71.16 |  |
| G*CG*AAG*CAG*AGC*GAG*CAGC*C (antisense dG*dCdG*dAdAdG*dCdAdG*dAdGdC*dGdAdG*dCdAdGdC*dC) [AS-II-163-20] | 45.8 | 9.81 | 7.14 | 29.05 | 9.88 | 22.73 | 5.49 | 37.13 | 18.64 | 32.08 |  |
| GCAGCGAAGCAGAGCGAGCA (antisense dG*dC*dA*dG*dC*dG*dA*dA*dG*dC*dA*dG*dA*dG*dC*dG*dA*dG*dC*dA) [AS-II-166-20] | 80.1 | 91.4 | 74.11 | 73.84 | 91.36 | 29.02 | 68.99 | 81.1 | 78.72 | 61.99 |  |
| CCCAGGACACTACACAAGCC (antisense dC*dC*dC*dA*dG*dG*dA*dC*dA*dC*dT*dA*dC*dA*dC*dA*dA*dG*dC*dC) [AS-II-2026-20] | 83.79 | 93.41 | 95.29 | 81.47 | 87.65 | 77.1 | 95.46 | 88.81 | 94.54 | 84.16 |  |
| GCTATTATCGCCGCCGTGAG (antisense dG*dC*dT*dA*dT*dT*dA*dT*dC*dG*dC*dC*dG*dC*dC*dG*dT*dG*dA*dG) [AS-II-1773-20] | 80.27 | 84.38 | 70.04 | 75.58 | 45.68 | 44.76 | 15.19 | 70.11 | 58.19 | 66.04 |  |
| C*CCC*TCAC*TCC*AGC*AGC*CT*T (antisense dC*dCdCdC*dTdCdAdC*dTdCdC*dAdGdC*dAdGdC*dCdT*dT) [AS-II-109-20] | 46.83 | 20.63 | 61.51 | 6.76 | 54.24 | 22.38 | 24.89 | 15.14 | 18.08 | 7.28 |  |
